In US8637496B2, “Compounds having a monogalactosyldiacylglycerol synthase inhibitory activity as herbicide or algaecide, herbicide and algaecide compositions” (Commissariat a l'Energie Atomique, priority 2007, dated 2014) one finds IC50 data, which are given here for 27 compounds.

The structures appear in SMILES notation. pIC50: −log10 of the molar value. Where a name gives a salt, the structure may show the parent alone. Read-outs that look alike come from different tables or passages of the source.

The test addresses T1, MGDG synthase in isolated spinach chloroplast envelope membranes (Spinacia oleracea, UniProt Q9SM44).
T1 construct: envelope membranes purified from the lysate by sucrose centrifugation gradient; from tissue; host or cells: envelope membranes of chloroplasts from spinach leaves
T1 sequence (Q9SM44 99-522): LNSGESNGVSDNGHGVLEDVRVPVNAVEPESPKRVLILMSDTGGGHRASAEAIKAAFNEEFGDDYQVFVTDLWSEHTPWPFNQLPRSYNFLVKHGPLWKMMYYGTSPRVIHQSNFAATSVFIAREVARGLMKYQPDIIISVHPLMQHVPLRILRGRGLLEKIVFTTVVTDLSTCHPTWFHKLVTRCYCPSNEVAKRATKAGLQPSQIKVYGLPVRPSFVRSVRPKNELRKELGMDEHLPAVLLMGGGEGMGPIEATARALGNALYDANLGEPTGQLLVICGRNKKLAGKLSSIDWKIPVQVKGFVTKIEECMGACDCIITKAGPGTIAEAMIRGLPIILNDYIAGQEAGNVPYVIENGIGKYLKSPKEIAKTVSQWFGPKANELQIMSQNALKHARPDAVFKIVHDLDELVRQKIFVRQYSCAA
Kind of test: MGDG synthase activity in envelope membrane fractions isolated from spinach chloroplasts. Format: biochemical. The source says: All the operations have been carried out as described in the article by Maréchal, E. et al., J. Biol. Chem., 1995, 270, 5714-5722. Crude chloroplasts were obtained from 3-4 kg of spinach leaves and purified by isopycnic centrifugation using Percoll gradients. Purified intact chloroplasts have then been lysed in hypotonic medium and envelope membranes purified from the lysate by sucrose centrifugation gradient as described in the article by Douce, R. and Joyard, J., (1982) in Methods in Chloroplast Molecular Biology (Edelman, M., Hallick R and Chua N H eds), pp 239-256, Elsevier Science Publishers B.V. Amsterdam.
MGDG synthase activity was assayed as described in the article by Maréchal et al. (1995).

Where [1] appears, read: Table 1, obtained in the same manner as FIG. 4, read-out: Inhibitory effect on MGDG synthesis in isolated spinach chloroplast envelope membranes.

For the compound `CC(COC(=O)N1CCC(n2c(=O)[nH]c3ccccc32)CC1)N(CCCOCc1ccccc1)Cc1ccccc1` (stereo not drawn) [Compound 89, 2-(benzyl(3-(benzyloxy)propyl)amino)propyl 4-(2-oxo-2,3-dihydro-1H-benzo[d]imidazol-1-yl)piperidine-1-carboxylate], the pIC50 under setting [1] is 4.40. For the compound `C[C@@H](COC(=O)N1CCC(n2c(=O)[nH]c3ccccc32)CC1)N(Cc1ccccc1)Cc1cccc(Cl)c1` [Compound 56, (S)-2-(benzyl(3-chlorobenzyl)amino)propyl 4-(2-oxo-2,3-dihydro-1H-benzo[d]imidazol-1-yl)piperidine-1-carboxylate hydrochloride], the pIC50 under setting [1] is 4.82. Turning to `O=C(OCCCN(Cc1ccccc1)Cc1ccnc2ccccc12)N1CCC(n2c(=O)[nH]c3ccccc32)CC1` [Compound 71, 3-(benzyl(quinolin-4-ylmethyl)amino)propyl 4-(2-oxo-2,3-dihydro-1H-benzo[d]imidazol-1-yl)piperidine-1-carboxylate hydrochloride], the pIC50 under setting [1] was 4.30. Take `O=C(OCCCN(Cc1ccccc1)Cc1ccoc1)N1CCC(n2c(=O)[nH]c3ccccc32)CC1` [Compound 80, 3-(benzyl(furan-3-ylmethyl)amino)propyl 4-(2-oxo-2,3-dihydro-1H-benzo[d]imidazol-1-yl)piperidine-1-carboxylate]: the pIC50 under setting [1] was 4.30. The compound `C[C@@H](COC(=O)N1CCC(n2c(=O)[nH]c3ccccc32)CC1)N(Cc1ccccc1)Cc1cc2ccccc2c2ccccc12` [Compound 61, (S)-2-(benzyl(phenanthren-9-ylmethyl)amino)propyl 4-(2-oxo-2,3-dihydro-1H-benzo[d]imidazol-1-yl)piperidine-1-carboxylate hydrochloride] showed a pIC50 of 4.60. As for `CC(CCOC(=O)N1CCC(n2c(=O)[nH]c3ccccc32)CC1)N(Cc1ccccc1)Cc1ccccc1` (stereo not drawn) [Compound 32, 3-(dibenzylamino)butyl 4-(1,2-dihydro-2-oxobenzo[d]imidazol-3-yl)piperidine-1-carboxylate], under setting [1], the pIC50 was 4.46.

Turning to `O=C(OCCN(Cc1ccccc1)Cc1ccc(F)cc1)N1CCC(n2c(=O)[nH]c3ccccc32)CC1` [Compound 45, 2-(benzyl(4-fluorobenzyl)amino)ethyl 4-(2-oxo-2,3-dihydro-1H-benzo[d]imidazol-1-yl)piperidine-1-carboxylate hydrochloride], under setting [1], the pIC50 is 5.30. Consider `O=C(OCCN(Cc1ccccc1)Cc1cccc(Oc2ccccc2)c1)N1CCC(n2c(=O)[nH]c3ccccc32)CC1` [Compound 49, 2-(benzyl(3-phenoxybenzyl)amino)ethyl 4-(2-oxo-2,3-dihydro-1H-benzo[d]imidazol-1-yl)piperidine-1-carboxylate hydrochloride], for which the pIC50 under setting [1] is 5.10. Regarding `C[C@@H](COC(=O)N1CCC(n2c(=S)[nH]c3ccccc32)CC1)N(Cc1ccccc1)Cc1ccccc1` [Compound 25, (S)-2-(dibenzylamino)propyl 4-(1,2-dihydro-2-thioxobenzo[d]imidazol-3-yl)piperidine-1-carboxylate], the pIC50 under setting [1] is 3.30 to 4.00. On to `C[C@@H](COC(=O)N1CCC(n2c(=O)[nH]c3ccccc32)CC1)N(Cc1ccccc1)Cc1ccnc2ccccc12` [Compound 53, (S)-2-(benzyl(quinolin-4-ylmethyl)amino)propyl 4-(2-oxo-2,3-dihydro-1H-benzo[d]imidazol-1-yl)piperidine-1-carboxylate hydrochloride], for which the pIC50 under setting [1] is 4.22. With `CC(C)C[C@@H](COC(=O)N1CCC(n2c(=O)[nH]c3ccccc32)CC1)N(Cc1ccccc1)C(=O)OC(C)(C)C` [Compound 85, (S)-2-(benzyl(tert-butoxycarbonyl)amino)-4-methylpentyl 4-(2-oxo-2,3-dihydro-1H-benzo[d]imidazol-1-yl)piperidine-1-carboxylate], the pIC50 under setting [1] is 5.00. The same measure, in the same setting: next, `O=C(OCCN(Cc1ccccc1)Cc1ccc(Br)cc1)N1CCC(n2c(=O)[nH]c3ccccc32)CC1` [Compound 40, 2-(benzyl(4-bromobenzyl)amino)ethyl 4-(2-oxo-2,3-dihydro-1H-benzo[d]imidazol-1-yl)piperidine-1-carboxylate hydrochloride]: 4.82.

Consider `COc1cccc(CN(CCOC(=O)N2CCC(n3c(=O)[nH]c4ccccc43)CC2)Cc2ccccc2)c1` [Compound 48, 2-(benzyl(3-methoxybenzyl)amino)ethyl 4-(2-oxo-2,3-dihydro-1H-benzo[d]imidazol-1-yl)piperidine-1-carboxylate hydrochloride], for which the pIC50 under setting [1] is 4.82.

As for `O=C(OC[C@H](c1ccccc1)N(Cc1ccccc1)Cc1ccccc1)N1CCC(n2c(=O)[nH]c3ccccc32)CC1` [Compound 34, (S)-2-(dibenzylamino)-2-phenylethyl 4-(1,2-dihydro-2-oxobenzo[d]imidazol-3-yl)piperidine-1-carboxylate], the pIC50 under setting [1] was 4.40. Consider `COc1ccc(CN(Cc2ccccc2)[C@@H](C)COC(=O)N2CCC(n3c(=O)[nH]c4ccccc43)CC2)cc1` [Compound 39, (S)-2-(benzyl(4-methoxybenzyl)amino)propyl 4-(2-oxo-2,3-dihydro-1H-benzo[d]imidazol-1-yl)piperidine-1-carboxylate hydrochloride], for which, under setting [1], the pIC50 is 4.22. On to `O=C(OCCCN(Cc1ccccc1)Cc1cccs1)N1CCC(n2c(=O)[nH]c3ccccc32)CC1` [Compound 66, 3-(benzyl(thiophen-2-ylmethyl)amino)propyl 4-(2-oxo-2,3-dihydro-1H-benzo[d]imidazol-1-yl)piperidine-1-carboxylate hydrochloride], for which the pIC50 under setting [1] was 4.30. With `CN(CCOC(=O)N1CCC(n2c(=O)[nH]c3ccccc32)CC1)Cc1ccccc1` [Compound 9, 2-(N-benzyl-N-methylamino)ethyl 4-(1,2-dihydro-2-oxobenzo[d]imidazol-3-yl)piperidine-1-carboxylate], the pIC50 under setting [1] is 3.30 to 4.00.

For `O=C(OCCN(Cc1ccccc1)Cc1ccc(OCc2ccccc2)cc1)N1CCC(n2c(=O)[nH]c3ccccc32)CC1` [Compound 77, 2-(benzyl(4-(benzyloxy)benzyl)amino)ethyl 4-(2-oxo-2,3-dihydro-1H-benzo[d]imidazol-1-yl)piperidine-1-carboxylate], the pIC50 under setting [1] was 4.52. For `O=C(OCC(c1ccccc1)c1ccccc1)N1CCC(n2c(=O)[nH]c3ccccc32)CC1` [Compound 18, 2,2-diphenylethyl 4-(1,2-dihydro-2-oxobenzo[d]imidazol-3-yl)piperidine-1-carboxylate], under setting [1], the pIC50 is 4.30. Same read-out and setting: the figure for `C[C@@H](COC(=O)N1CCC(n2c(=O)[nH]c3ccccc32)CC1)N(Cc1ccccc1)Cc1ccc(Br)cc1` [Compound 41, (S)-2-(benzyl(4-bromobenzyl)amino)propyl 4-(2-oxo-2,3-dihydro-1H-benzo[d]imidazol-1-yl)piperidine-1-carboxylate hydrochloride] is 4.30; for `O=C(OCCCN(Cc1ccccc1)Cc1ccccc1)N1CCC(n2c(=O)[nH]c3ccccc32)CC1` [Compound 10, 3-(dibenzylamino)propyl 4-(1,2-dihydro-2-oxobenzo[d]imidazol-3-yl)piperidine-1-carboxylate] it is 4.35; for `C[C@@H](COC(=O)N1CCC(n2c(=O)[nH]c3ncccc32)CC1)N(Cc1ccccc1)Cc1ccccc1` [Compound 2, (S)-2-(dibenzylamino)propyl 4-(2,3-dihydro-2-oxoimidazo[4,5-b]pyridin-1-yl)piperidine-1-carboxylate] it is 3.30 to 4.00. Regarding `O=C(OCCCN(Cc1ccccc1)Cc1ccc(F)cc1)N1CCC(n2c(=O)[nH]c3ccccc32)CC1` [Compound 67, 3-(benzyl(4-fluorobenzyl)amino)propyl 4-(2-oxo-2,3-dihydro-1H-benzo[d]imidazol-1-yl)piperidine-1-carboxylate hydrochloride], the pIC50 under setting [1] was 4.92.

As to `CC(C)(C)OC(=O)N(CCOC(=O)N1CCC(n2c(=O)[nH]c3ccccc32)CC1)Cc1ccccc1` [Compound 65, 2-(benzyl(tert-butoxycarbonyl)amino)ethyl 4-(2-oxo-2,3-dihydro-1H-benzo[d]imidazol-1-yl)piperidine-1-carboxylate], the pIC50 under setting [1] is 4.92. Consider `O=C(OC[C@@H](Cc1ccccc1)N(Cc1ccccc1)Cc1ccccc1)N1CCC(n2c(=O)[nH]c3ccccc32)CC1` [Compound 43, (R)-2-(dibenzylamino)-3-phenylpropyl 4-(1,2-dihydro-2-oxobenzo[d]imidazol-3-yl)piperidine-1-carboxylate], for which the pIC50 under setting [1] was 5.22. On to `O=C(OCCCN(Cc1ccccc1)Cc1ccc(Cl)cc1)N1CCC(n2c(=O)[nH]c3ccccc32)CC1` [Compound 83, 3-(benzyl(4-chlorobenzyl)amino)propyl 4-(2-oxo-2,3-dihydro-1H-benzo[d]imidazol-1-yl)piperidine-1-carboxylate], for which the pIC50 under setting [1] was 4.92. Consider `CC(C)(C)OC(=O)N(Cc1ccccc1)[C@H](COC(=O)N1CCC(n2c(=O)[nH]c3ccccc32)CC1)Cc1ccccc1` [Compound 86, (S)-2-(benzyl(tert-butoxycarbonyl)amino)-3-phenylpropyl 4-(2-oxo-2,3-dihydro-1H-benzo[d]imidazol-1-yl)piperidine-1-carboxylate], for which the pIC50 under setting [1] is 5.30.
